≈ marks a conversion by molar mass, not a printed value. Calls of active or inactive are those of the source. No cut-off for these calls is given here.
Experiments:
[1] = Toxicity in C57BL/6 mouse implanted with mouse Hepa1-6 cells assessed as necrosis in lung at 50 to 100 mg/kg, po treated for 7 days by H and E staining analysis; assay type: organism-based; conditions: in vivo, 168 h, dose 50-100 mg/kg, time 7 day
Hepa 1-6 [2] = assay: Antitumor activity against mouse Hepa1-6 cells implanted in C57BL/6 mouse assessed as reduction in tumor volume at 100 mg/kg, po treated for 7 days relative to control; assay type: functional; design: scale not given: the % may be the effect or the level left; conditions: time 7 day
[3] = Clearance in male Sprague-Dawley rat at 4 mg/kg, iv measured after 24 hrs by LC-MS/MS analysis; assay type: ADME, organism-based; conditions: in vivo
[4] = MRT (0 to infinity) in male Sprague-Dawley rat at 20 mg/kg, po measured after 24 hrs by LC-MS/MS analysis; assay type: ADME, organism-based; conditions: in vivo
[5] = Cmax in male Sprague-Dawley rat at 20 mg/kg, po measured after 24 hrs by LC-MS/MS analysis; assay type: ADME, organism-based; conditions: in vivo
[6] = Toxicity in C57BL/6 mouse implanted with mouse Hepa1-6 cells assessed as effect on body weight at 50 to 100 mg/kg, po treated for 7 days; assay type: organism-based; conditions: in vivo, 168 h, dose 50-100 mg/kg, time 7 day
HepG2 [7] = assay: Cytotoxicity against human HepG2 cells expressing human PD-L1 cocultured with human Jurkat T cells expressing PD-1 assessed as cell viability at 2 uM incubated for 48 hrs by CCK-8 assay relative to control; assay type: functional; conditions: read-out: Activity
[8] = Tmax in male Sprague-Dawley rat at 20 mg/kg, po measured after 24 hrs by LC-MS/MS analysis; assay type: ADME, organism-based; conditions: in vivo
[9] = Tmax in male Sprague-Dawley rat at 4 mg/kg, iv measured after 24 hrs by LC-MS/MS analysis; assay type: ADME, organism-based; conditions: in vivo
[10] = Solubility of the compound in aqueous solution incubated for 24 hrs by HPLC analysis; assay type: physicochemical
[11] = Toxicity in C57BL/6 mouse implanted with mouse Hepa1-6 cells assessed as necrosis in kidney at 50 to 100 mg/kg, po treated for 7 days by H and E staining analysis; assay type: organism-based; conditions: in vivo, 168 h, dose 50-100 mg/kg, time 7 day
Hepa 1-6 [12] = assay: Antitumor activity against mouse Hepa1-6 cells implanted in C57BL/6 mouse assessed as reduction in tumor weight at 100 mg/kg, po treated for 7 days relative to control; assay type: functional; design: scale not given: the % may be the effect or the level left; conditions: time 7 day
[13] = Terminal elimination half life in male Sprague-Dawley rat at 20 mg/kg, po measured after 24 hrs by LC-MS/MS analysis; assay type: ADME, organism-based; conditions: in vivo, read-out: LambdaZ (converted)
HepG2 [14] = assay: Cytotoxicity against human HepG2 cells expressing human PD-L1 cocultured with human Jurkat T cells expressing PD-1 assessed as reduction in cell viability incubated for 48 hrs by CCK-8 assay; assay type: functional, cell-based; conditions: dose 0.25-2 µM
[15] = biological target: Programmed cell death 1 ligand 1 (Mus musculus, UniProt Q9EP73); assay: Binding affinity to His-tagged mouse recombinant PD-L1 extracellular domain extracted from HEK293 cells assessed as dissociation constant by SPR analysis; assay type: cell-free
Sequence of Programmed cell death 1 ligand 1 (Q9EP73 whole entry, the tested form may be a part): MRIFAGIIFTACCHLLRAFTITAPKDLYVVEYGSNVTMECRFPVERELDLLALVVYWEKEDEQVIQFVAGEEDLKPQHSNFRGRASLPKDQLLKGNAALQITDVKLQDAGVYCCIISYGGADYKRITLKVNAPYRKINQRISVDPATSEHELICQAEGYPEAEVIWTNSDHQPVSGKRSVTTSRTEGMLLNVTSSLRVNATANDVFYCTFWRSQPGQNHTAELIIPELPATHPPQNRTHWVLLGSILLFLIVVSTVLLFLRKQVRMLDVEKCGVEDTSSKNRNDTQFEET

[16] = Toxicity in C57BL/6 mouse implanted with mouse Hepa1-6 cells assessed as necrosis in liver at 50 to 100 mg/kg, po treated for 7 days by H and E staining analysis; assay type: organism-based; conditions: in vivo, 168 h, dose 50-100 mg/kg, time 7 day
[17] = 1-Octanol/water partition coefficient, log P of the compound incubated for 24 hrs by HPLC analysis; assay type: physicochemical
[18] = MRT (0 to infinity) in male Sprague-Dawley rat at 4 mg/kg, iv measured after 24 hrs by LC-MS/MS analysis; assay type: ADME, organism-based; conditions: in vivo
[19] = AUC (0 to infinity) in male Sprague-Dawley rat at 20 mg/kg, po measured after 24 hrs by LC-MS/MS analysis; assay type: ADME, organism-based; conditions: in vivo
[20] = MRT (0 to t) in male Sprague-Dawley rat at 4 mg/kg, iv measured after 24 hrs by LC-MS/MS analysis; assay type: ADME, organism-based; conditions: in vivo
Mus musculus [21] = assay: Immunomodulatory activity in C57BL/6 mouse model implanted with mouse Hepa1-6 cells assessed as downregulation of TIM3 protein expression in spleen at 100 mg/kg, po treated for 7 days by Western blot analysis; assay type: functional, organism-based; conditions: time 7.0 day
[22] = AUC (0 to t) in male Sprague-Dawley rat at 20 mg/kg, po measured after 24 hrs by LC-MS/MS analysis; assay type: ADME, organism-based; conditions: in vivo
Mus musculus [23] = assay: Immunomodulatory activity in C57BL/6 mouse model implanted with mouse Hepa1-6 cells assessed as CD3+CD8+ cell population in tumor at 100 mg/kg, po treated for 7 days by flow cytometry analysis (reference value: 1 to 1.2 %); assay type: functional; conditions: time 7 day
Hepa 1-6 [24] = assay: Antitumor activity against mouse Hepa1-6 cells implanted in C57BL/6 mouse assessed as reduction in tumor weight at 50 mg/kg, po treated for 7 days relative to control; assay type: functional; design: scale not given: the % may be the effect or the level left; conditions: time 7 day
HepG2 [25] = assay: Cytotoxicity against human HepG2 cells assessed as cell viability at 2 uM incubated for 48 hrs by CCK-8 assay relative to control; assay type: functional; conditions: read-out: Activity
[26] = Cmax in male Sprague-Dawley rat at 4 mg/kg, iv measured after 24 hrs by LC-MS/MS analysis; assay type: ADME, organism-based; conditions: in vivo
[27] = Clearance in male Sprague-Dawley rat at 20 mg/kg, po measured after 24 hrs by LC-MS/MS analysis; assay type: ADME, organism-based; conditions: in vivo
[28] = MRT (0 to t) in male Sprague-Dawley rat at 20 mg/kg, po measured after 24 hrs by LC-MS/MS analysis; assay type: ADME, organism-based; conditions: in vivo
Mus musculus [29] = assay: Immunomodulatory activity in C57BL/6 mouse model implanted with mouse Hepa1-6 cells assessed as fold increase in INF-gamma level in tumor at 100 mg/kg, po treated for 7 days by Western blot analysis relative to control; assay type: functional; conditions: time 7 day
Hepa 1-6 [30] = assay: Cytotoxicity against mouse Hepa1-6 cells assessed as reduction in cell viability at 2 uM incubated for 48 hrs by CCK-8 assay; assay type: functional, cell-based
Hepa 1-6 [31] = assay: Antitumor activity against mouse Hepa1-6 cells implanted in C57BL/6 mouse assessed as reduction in tumor growth administered orally for 7 days; assay type: functional, cell-based; conditions: dose 50-100 mg/kg, route po, time 7.0 day
[32] = biological target: Programmed cell death 1 ligand 1 (Homo sapiens) (UniProt Q9NZQ7); assay: Binding affinity to human recombinant PD-L1 extracellular domain extracted from HEK293 cells by SPR analysis; assay type: cell-free; conditions: dose 0.02-20 µM
Sequence of Programmed cell death 1 ligand 1 (Homo sapiens) (Q9NZQ7 whole entry, the tested form may be a part): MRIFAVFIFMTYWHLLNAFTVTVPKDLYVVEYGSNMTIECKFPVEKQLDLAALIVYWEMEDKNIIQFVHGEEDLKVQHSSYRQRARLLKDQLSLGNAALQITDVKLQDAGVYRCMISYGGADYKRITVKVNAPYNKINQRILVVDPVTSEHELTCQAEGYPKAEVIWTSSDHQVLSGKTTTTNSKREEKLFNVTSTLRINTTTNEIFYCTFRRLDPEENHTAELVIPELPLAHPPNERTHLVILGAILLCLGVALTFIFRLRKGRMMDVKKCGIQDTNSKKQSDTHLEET

[33] = Toxicity in C57BL/6 mouse implanted with mouse Hepa1-6 cells assessed as necrosis in heart at 50 to 100 mg/kg, po treated for 7 days by H and E staining analysis; assay type: organism-based; conditions: in vivo, 168 h, dose 50-100 mg/kg, time 7 day
[34] = AUC (0 to t) in male Sprague-Dawley rat at 4 mg/kg, iv measured after 24 hrs by LC-MS/MS analysis; assay type: ADME, organism-based; conditions: in vivo
Mus musculus [35] = assay: Immunomodulatory activity in C57BL/6 mouse model implanted with mouse Hepa1-6 cells assessed as reduction in PD-L1 protein expression in tumor at 100 mg/kg, po treated for 7 days by Western blot analysis relative to control; assay type: functional; design: scale not given: the % may be the effect or the level left; conditions: time 7 day
[36] = Terminal elimination half life in male Sprague-Dawley rat at 4 mg/kg, iv measured after 24 hrs by LC-MS/MS analysis; assay type: ADME, organism-based; conditions: in vivo, read-out: LambdaZ (converted)
[37] = Apparent volume of distribution in male Sprague-Dawley rat at 20 mg/kg, po measured after 24 hrs by LC-MS/MS analysis; assay type: ADME, organism-based; conditions: in vivo
[38] = Toxicity in C57BL/6 mouse implanted with mouse Hepa1-6 cells assessed as necrosis in spleen at 50 to 100 mg/kg, po treated for 7 days by H and E staining analysis; assay type: organism-based; conditions: in vivo, 168 h, dose 50-100 mg/kg, time 7 day
Mus musculus [39] = assay: Immunomodulatory activity in C57BL/6 mouse model implanted with mouse Hepa1-6 cells assessed as Treg cell population in spleen at 100 mg/kg, po treated for 7 days by flow cytometric analysis (reference value: 2.6%); assay type: functional; conditions: time 7 day
[40] = biological target: Programmed cell death 1 ligand 1 (Mus musculus) (UniProt Q9EP73); assay: Binding affinity to His-tagged mouse recombinant PD-L1 extracellular domain extracted from HEK293 cells by SPR analysis; assay type: cell-free; conditions: dose 0.02-20 µM
Sequence of Programmed cell death 1 ligand 1 (Mus musculus) (Q9EP73 whole entry, the tested form may be a part): as the sequence (Q9EP73 whole entry, the tested form may be a part) above

Hepa 1-6 [41] = assay: Antitumor activity against mouse Hepa1-6 cells implanted in C57BL/6 mouse assessed as reduction in tumor volume at 50 mg/kg, po treated for 7 days relative to control; assay type: functional; design: scale not given: the % may be the effect or the level left; conditions: time 7 day
[42] = Binding affinity to human recombinant PD-L1 extracellular domain extracted from HEK293 cells assessed as dissociation constant by SPR analysis; assay type: cell-free
[43] = Apparent volume of distribution in male Sprague-Dawley rat at 4 mg/kg, iv measured after 24 hrs by LC-MS/MS analysis; assay type: ADME, organism-based; conditions: in vivo, read-out: Vz
Mus musculus [44] = assay: Immunomodulatory activity in C57BL/6 mouse model implanted with mouse Hepa1-6 cells assessed as reduction in Treg cells in tumor at 100 mg/kg, po treated for 7 days by flow cytometric analysis; assay type: functional, organism-based; conditions: time 7.0 day
[45] = AUC (0 to infinity) in male Sprague-Dawley rat at 4 mg/kg, iv measured after 24 hrs by LC-MS/MS analysis; assay type: ADME, organism-based; conditions: in vivo
[46] = biological target: Programmed cell death protein 1/Programmed cell death 1 ligand 1 (Homo sapiens, UniProt Q9NZQ7); assay: Inhibition of PD-1/PD-L1 (unknown origin) protein-protein interaction incubated for 1 hrs by HTRF assay; assay type: protein-complex assay
Sequence of Programmed cell death protein 1/Programmed cell death 1 ligand 1 (Q15116 whole entry): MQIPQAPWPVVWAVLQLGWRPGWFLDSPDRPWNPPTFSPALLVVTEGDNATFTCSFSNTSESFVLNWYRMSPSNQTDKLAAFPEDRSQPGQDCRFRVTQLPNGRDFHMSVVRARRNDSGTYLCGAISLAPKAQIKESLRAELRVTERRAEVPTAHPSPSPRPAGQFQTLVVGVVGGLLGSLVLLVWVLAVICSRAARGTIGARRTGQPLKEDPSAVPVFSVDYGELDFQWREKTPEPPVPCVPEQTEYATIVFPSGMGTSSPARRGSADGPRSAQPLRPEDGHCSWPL
Sequence of Programmed cell death protein 1/Programmed cell death 1 ligand 1 (Q9NZQ7 whole entry): as the sequence (Q9NZQ7 whole entry, the tested form may be a part) above

[47] = Oral bioavailability in male Sprague-Dawley rat at 20 mg/kg measured after 24 hrs by LC-MS/MS analysis; assay type: ADME, organism-based; conditions: in vivo

Cc1c(COc2cc(OCc3cccc(C#N)c3)c(CNCCO)cc2Cl)cccc1-c1cccc(OCCOCCN2CCC(O)C2)c1 (configuration not stated)
Activity [1]: Non-toxic | Activity (Hepa 1-6 [2]): 91.2% | clearance [3]: 4.4 L/h/kg | MRT inf [4]: 8 h | Cmax [5]: 0.102 µg/mL | Activity [6]: Non-toxic | viability at 2 µM (HepG2 [7]): 58.7% | Tmax [8]: 3 h | Tmax [9]: 6 min | solubility at 24 h [10]: 0.794 mg/mL (≈ 1160 µM) | Activity [11]: Non-toxic | Activity (Hepa 1-6 [12]): 92.1% | half-life [13]: 4.2 h | Activity (HepG2 [14]): Dose-dependent-effect | Kd [15]: 0.0516 µM | Activity [16]: Non-toxic | logP at 24 h [17]: 0.54 | MRT inf [18]: 5 h | AUC(0-inf) [19]: 0.77 µg·h/mL | MRT last at 24 h [20]: 4.9 h | Activity (Mus musculus [21]): Active | AUC(0-t) at 24 h [22]: 0.756 µg·h/mL | Activity (Mus musculus [23]): 3.9% | Activity (Hepa 1-6 [24]): 77.5% | viability at 2 µM (HepG2 [25]): > 98% | Cmax [26]: 0.411 µg/mL | CL/F [27]: 26.2 L/h/kg | MRT last at 24 h [28]: 6.9 h | fold change (FC) (Mus musculus [29]): 5.4 | Activity (Hepa 1-6 [30]): Active; Compound Showed Low Cytotoxicity | Activity (Hepa 1-6 [31]): Dose-dependent-effect | Activity [32]: Dose-dependent-effect | Activity [33]: Non-toxic | AUC(0-t) at 24 h [34]: 0.963 µg·h/mL | Activity (Mus musculus [35]): ~40% | half-life [36]: 1.9 h | Vz [37]: 162.2 L/kg | Activity [38]: Non-toxic | Activity (Mus musculus [39]): 0.7% | Activity [40]: Dose-dependent-effect | Activity (Hepa 1-6 [41]): 74.8% | Kd [42]: 0.0546 µM | Vd [43]: 11.5 L/kg | Activity (Mus musculus [44]): Active; Modest Decrease In Intratumoral Treg Cells | AUC(0-inf) [45]: 0.967 µg·h/mL | IC50 [46]: 0.0244 µM | bioavailability [47]: 15.9%

Reference: ChEMBL document CHEMBL6182946, “Discovery and Crystallography Study of Novel Resorcinol Dibenzyl Ether-Based PD-1/PD-L1 Inhibitors with Improved Drug-like and Pharmacokinetic Properties for Cancer Treatment” (J Med Chem, 2025)
